“And” between values parts separate entries of the source, which are not always exact repeats. Equal entries are not always repeated. Toxic doses and inconclusive results are not listed. Cut-off read from the data, not from the text of the source: active = T/C of 150% or more; inactive = T/C below 125%.
Test system: L1210 leukemia ip in BDF1 mice, survival T/C
Assay: NCI In Vivo Anticancer Drug Screen. Data for tumor model L1210 Leukemia (intraperitoneal) in B6D2F1 (BDF1) mice
Details: endpoint: mean survival time, higher = longer survival
Procedure, shortened: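 Tumor cells were implanted, animals were treated, and survival was followed. The result divides the treated measurement by the vehicle-control measurement.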

[1] = dose: 6.25 mg/kg/injection, schedule: Q01DX009 (ip), vehicle: saline
[2] = dose: 12.5 mg/kg/injection, schedule: Q01DX009 (ip), vehicle: saline
[3] = dose: 25.0 mg/kg/injection, schedule: Q01DX009 (ip), vehicle: saline
[4] = dose: 25.0 mg/kg/injection, schedule: Q04DX003 (ip), vehicle: saline

Measured: T/C

COc1ccc(OC(=O)Nc2ccccc2C)cc1
inactive: dose: 50.0 mg/kg/injection, schedule: Q04DX002 (ip), vehicle: Klucel (hydroxypropylcellulose) (HPC) 104 % of control | dose: 100.0 mg/kg/injection, schedule: Q04DX002 (ip), vehicle: Klucel (hydroxypropylcellulose) (HPC) 100 % of control and 101 % of control | dose: 200.0 mg/kg/injection, schedule: Q04DX002 (ip), vehicle: Klucel (hydroxypropylcellulose) (HPC) 101 % of control | dose: 400.0 mg/kg/injection, schedule: Q04DX002 (ip), vehicle: Klucel (hydroxypropylcellulose) (HPC) 104 % of control and 111 % of control

CC1CCC(C)(C)CC1(C)c1cc(CN(C)C)c(O)c(CN(C)C)c1 (centres undefined)
inactive: dose: 12.5 mg/kg/injection, schedule: Q04DX003 (ip), vehicle: acetone 93 % of control | dose: 25.0 mg/kg/injection, schedule: Q04DX003 (ip), vehicle: acetone 98 % of control | dose: 50.0 mg/kg/injection, schedule: Q04DX003 (ip), vehicle: acetone 90 % of control

COC(=O)c1ccc(Cl)c(Cl)c1
inactive: dose: 25.0 mg/kg/injection, schedule: Q01DX009 (ip), vehicle: saline with Tween-80 110 % of control | dose: 50.0 mg/kg/injection, schedule: Q01DX009 (ip), vehicle: saline with Tween-80 104 % of control | dose: 100.0 mg/kg/injection, schedule: Q01DX009 (ip), vehicle: saline with Tween-80 107 % of control | dose: 200.0 mg/kg/injection, schedule: Q01DX009 (ip), vehicle: saline with Tween-80 100 % of control | dose: 400.0 mg/kg/injection, schedule: Q01DX009 (ip), vehicle: saline with Tween-80 102 % of control

COc1ccc([N+](=O)[O-])cc1NC(=O)Nc1c(C)n(C)n(-c2ccccc2)c1=O
inactive: dose: 50.0 mg/kg/injection, schedule: Q01DX009 (ip), vehicle: Klucel (hydroxypropylcellulose) (HPC) 108 % of control | dose: 100.0 mg/kg/injection, schedule: Q01DX009 (ip), vehicle: Klucel (hydroxypropylcellulose) (HPC) 105 % of control | dose: 200.0 mg/kg/injection, schedule: Q01DX009 (ip), vehicle: Klucel (hydroxypropylcellulose) (HPC) 97 % of control

CN(C)CCCN1c2ccccc2CCc2ccc(Cl)cc21
inactive: dose: 3.12 mg/kg/injection, schedule: Q01DX009 (ip), vehicle: saline 97 % of control | [1] 108 % of control | [2] 94 % of control | [3] 94 % of control | [4] 96 % of control | dose: 50.0 mg/kg/injection, schedule: Q01DX009 (ip), vehicle: saline 101 % of control | dose: 50.0 mg/kg/injection, schedule: Q04DX003 (ip), vehicle: saline 96 % of control

NC(=O)N/N=C1\CC2CC1C1C=CCC21 (centres undefined)
inactive: dose: 50.0 mg/kg/injection, schedule: Q01DX001 (ip), vehicle: carboxymethylcellulose (CMC) 102 % of control | dose: 100.0 mg/kg/injection, schedule: Q01DX001 (ip), vehicle: carboxymethylcellulose (CMC) 93 % of control | dose: 200.0 mg/kg/injection, schedule: Q01DX001 (ip), vehicle: carboxymethylcellulose (CMC) 102 % of control

C/C=C/C=C\COC(=O)C1CCCC1
inactive: dose: 100.0 mg/kg/injection, schedule: Q04DX002 (ip), vehicle: saline 103 % of control and 107 % of control | dose: 200.0 mg/kg/injection, schedule: Q04DX002 (ip), vehicle: saline 96 % of control and 98 % of control | dose: 400.0 mg/kg/injection, schedule: Q04DX002 (ip), vehicle: saline 107 % of control | dose: 600.0 mg/kg/injection, schedule: Q04DX002 (ip), vehicle: saline 107 % of control

ClCCN(CCCl)CCn1cnc2c(SCc3ccccc3)ncnc21
inactive: dose: 13.0 mg/kg/injection, schedule: Q01DX Z (ip), vehicle: carboxymethylcellulose (CMC) 103 % of control | dose: 20.0 mg/kg/injection, schedule: Q01DX Z (ip), vehicle: carboxymethylcellulose (CMC) 108 % of control | dose: 30.0 mg/kg/injection, schedule: Q01DX Z (ip), vehicle: carboxymethylcellulose (CMC) 105 % of control | dose: 45.0 mg/kg/injection, schedule: Q01DX Z (ip), vehicle: carboxymethylcellulose (CMC) 110 % of control

CC[N+](CC)(CC)CCCNC(=O)C12CC3CC(CC(C3)C1)C2
inactive: dose: 25.0 mg/kg/injection, schedule: Q04DX002 (ip), vehicle: saline 95 % of control | dose: 50.0 mg/kg/injection, schedule: Q04DX002 (ip), vehicle: saline 101 % of control

NC(CO)Cc1ccccc1 (centres undefined)
inactive: [1] 107 % of control | dose: 6.25 mg/kg/injection, schedule: Q04DX003 (ip), vehicle: saline 100 % of control | [2] 96 % of control | dose: 12.5 mg/kg/injection, schedule: Q04DX003 (ip), vehicle: saline 93 % of control | [3] 102 % of control | [4] 105 % of control | dose: 35.0 mg/kg/injection, schedule: Q01DX009 (ip), vehicle: saline 88 % of control | dose: 55.0 mg/kg/injection, schedule: Q01DX009 (ip), vehicle: saline 98 % of control | dose: 75.0 mg/kg/injection, schedule: Q01DX001 (ip), vehicle: carboxymethylcellulose (CMC) 86 % of control | dose: 80.0 mg/kg/injection, schedule: Q01DX009 (ip), vehicle: saline 96 % of control and 98 % of control | dose: 120.0 mg/kg/injection, schedule: Q01DX009 (ip), vehicle: saline 103 % of control | dose: 150.0 mg/kg/injection, schedule: Q01DX001 (ip), vehicle: carboxymethylcellulose (CMC) 91 % of control | dose: 180.0 mg/kg/injection, schedule: Q01DX009 (ip), vehicle: saline 121 % of control | dose: 300.0 mg/kg/injection, schedule: Q01DX001 (ip), vehicle: carboxymethylcellulose (CMC) 88 % of control

— PubChem BioAssay AID248 (DTP/NCI, 2004)
